Values joined by “and” are separate entries in the source; they are usually repeats but may differ in a detail not shown here. Equal entries are not always repeated. Where two headings read alike, the source gives them in different places. Square brackets hold non-standard residues; d marks the D form. Peptide text beside a SMILES is read from it. NMeTrp(1-(4-Br-benzyl)) = CN[C@@H](Cc1cn(Cc2ccc(Br)cc2)c2ccccc12)C(=O)O; Butanoyl(2R-oxy,4-CN) = N#CCC[C@@H](O)C(=O)O; Abu(4,4,4-F3) = N[C@@H](CC(F)(F)F)C(=O)O; NMeL = CN[C@@H](CC(C)C)C(=O)O; NMeA = CN[C@@H](C)C(=O)O
Columns and labels:
Sec61 [1] = target: T1, Sec61 (Homo sapiens, UniProt P61619); assay: cell-based
T1 construct: endogenous in cells
Target sequence in this assay (P60059 whole entry): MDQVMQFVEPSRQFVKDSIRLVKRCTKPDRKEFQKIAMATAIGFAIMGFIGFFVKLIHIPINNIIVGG
Target sequence in this assay (P61619 whole entry): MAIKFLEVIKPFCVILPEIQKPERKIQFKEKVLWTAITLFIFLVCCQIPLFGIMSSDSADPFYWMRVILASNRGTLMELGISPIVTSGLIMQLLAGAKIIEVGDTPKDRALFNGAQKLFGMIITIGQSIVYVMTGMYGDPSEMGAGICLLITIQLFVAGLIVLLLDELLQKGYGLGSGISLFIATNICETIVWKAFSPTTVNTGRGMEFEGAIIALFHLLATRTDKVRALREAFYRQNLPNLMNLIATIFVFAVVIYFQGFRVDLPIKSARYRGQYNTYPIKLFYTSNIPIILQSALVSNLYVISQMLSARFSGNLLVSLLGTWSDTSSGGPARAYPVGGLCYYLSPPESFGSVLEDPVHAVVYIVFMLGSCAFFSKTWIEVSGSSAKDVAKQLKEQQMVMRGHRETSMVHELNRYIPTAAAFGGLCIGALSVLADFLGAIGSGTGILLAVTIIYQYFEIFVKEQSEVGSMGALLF
Target sequence in this assay (P60468 whole entry, further chain): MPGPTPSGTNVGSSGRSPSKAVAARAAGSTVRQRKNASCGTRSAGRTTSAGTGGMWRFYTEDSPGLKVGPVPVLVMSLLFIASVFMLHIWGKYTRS

Sec61 [2] = target: T1, Sec61; assay: signal peptide-GLuc (SP-GLuc) reporter panel, 89 constructs; type: cell-based; settings: read-out: IC50
Source text: The heat map depicts IC50 values calculated from each SP-GLuc dose–response curve. d, Arthritis was induced in BALB/c mice with antibodies specific for type II collagen (mAb) on day 0 and endotoxin on day 3. On day 4, when the disease was present in all animals, mice were randomized and treated for 2 weeks with thrice weekly (QODx3) or weekly (QW) intravenous administration of vehicle or KZR-8445 or intraperitoneal administration of dexamethasone. Clinical scores (0–4 per paw; n = 10 per group) and body weights were followed until day 14. Data are presented as mean values ± s.d. mAb, monoclonal antibody. Source data
To investigate the effects of KZR-8445 on secretory and membrane protein biogenesis and to establish Sec61α as the relevant target, we quantified the secretion of a doxycycline-inducible Gaussia luciferase (GLuc) reporter fused to the C-terminus of two full-length pro-inflammatory cytokines, interleukin-2 (IL-2) (which contains a cleavable signal peptide) and tumor necrosis factor-alpha (TNFα) (which contains an N-terminal transmembrane anchor). […] KZR-8445 is structurally related to CT8, which discriminates among Sec61 clients based largely on their N-terminal signal peptide. […] We also directly compared KZR-8445 to mycolactone A/B, a structurally distinct and relatively client-nonselective Sec61 inhibitor[8],[25], for their ability to discriminate between vascular cell adhesion molecule (VCAM) and preprolactin (pPL) signal peptides.
Target sequence in this assay (P61619 whole entry): as the sequence (P61619 whole entry) above
Target sequence in this assay (P60059 whole entry, further chain): as the sequence (P60059 whole entry) above
Target sequence in this assay (P60468 whole entry, further chain): as the sequence (P60468 whole entry, further chain) above

## CC(C)C[C@@H]1NC(=O)[C@H](Cc2cn(Cc3ccc(Br)cc3)c3ccccc23)N(C)C(=O)[C@H](CC(F)(F)F)NC(=O)[C@H](CC(C)C)N(C)C(=O)[C@H](CC(F)(F)F)NC(=O)[C@@H](CCC#N)OC(=O)[C@H](C)N(C)C1=O [KZR-0508445] (cyclo(L[NMeA][Butanoyl(2R-oxy,4-CN)][Abu(4,4,4-F3)][NMeL][Abu(4,4,4-F3)][NMeTrp(1-(4-Br-benzyl))]))
Sec61 [1]; HER3, Concentration 0.32
  GLuc reporter raw signal (replicates): 2935000 and 2941500 and 3013900
Sec61 [1]; HER3, Concentration 8
  GLuc reporter raw signal (replicates): 2659500 and 2842600
Sec61 [1]; HER3, Concentration 40
  GLuc reporter raw signal (replicates): 1960600 and 2026300 and 1990500
Sec61 [1]; HER3, Concentration 200
  GLuc reporter raw signal (replicates): 739710 and 740510 and 713180
Sec61 [1]; HER3, Concentration 1000
  GLuc reporter raw signal (replicates): 117630 and 116630 and 119290
Sec61 [1]; HER3, Concentration 5000
  GLuc reporter raw signal (replicates): 40623 and 42704 and 41387
Sec61 [1]; HER3, Concentration 25000
  GLuc reporter raw signal (replicates): 40492 and 42302 and 41156
Sec61 [1]; IL2, Concentration 0.32
  GLuc reporter raw signal (replicates): 2694100 and 2451600 and 2682900
Sec61 [1]; IL2, Concentration 8
  GLuc reporter raw signal (replicates): 2155800 and 2012200 and 2217000
Sec61 [1]; IL2, Concentration 40
  GLuc reporter raw signal (replicates): 1384000 and 1357800 and 1362400
Sec61 [1]; IL2, Concentration 200
  GLuc reporter raw signal (replicates): 418080 and 431560 and 427460
Sec61 [1]; IL2, Concentration 1000
  GLuc reporter raw signal (replicates): 69620 and 75099 and 80209
Sec61 [1]; IL2, Concentration 5000
  GLuc reporter raw signal (replicates): 24453 and 26590 and 27282
Sec61 [1]; IL2, Concentration 25000
  GLuc reporter raw signal (replicates): 27001 and 26299 and 26941
Sec61 [1]; PD1, Concentration 0.32
  GLuc reporter raw signal (replicates): 1085300 and 1145000 and 1139600
Sec61 [1]; PD1, Concentration 8
  GLuc reporter raw signal (replicates): 871620 and 904180 and 884200
Sec61 [1]; PD1, Concentration 40
  GLuc reporter raw signal (replicates): 505580 and 506170 and 515230
Sec61 [1]; PD1, Concentration 200
  GLuc reporter raw signal (replicates): 149930 and 159870 and 181940
Sec61 [1]; PD1, Concentration 1000
  GLuc reporter raw signal (replicates): 25647 and 33346 and 33065
Sec61 [1]; PD1, Concentration 5000
  GLuc reporter raw signal (replicates): 10483 and 12045 and 12165
Sec61 [1]; PD1, Concentration 25000
  GLuc reporter raw signal (replicates): 10613 and 11144 and 10202
Sec61 [1]; Prolactin, Concentration 0.32
  GLuc reporter raw signal (replicates): 9123600 and 9441100 and 9520300
Sec61 [1]; Prolactin, Concentration 40
  GLuc reporter raw signal (replicates): 8673700 and 8850000 and 8412700
Sec61 [1]; Prolactin, Concentration 200
  GLuc reporter raw signal (replicates): 7415400 and 7981400 and 8354800
Sec61 [1]; Prolactin, Concentration 1000
  GLuc reporter raw signal (replicates): 4269000 and 4043400 and 4397300
Sec61 [1]; Prolactin, Concentration 5000
  GLuc reporter raw signal (replicates): 1501600 and 1605300 and 3990200
Sec61 [1]; Prolactin, Concentration 25000
  GLuc reporter raw signal (replicates): 1205700 and 1279300 and 1375600
Sec61 [1]; TNFa, Concentration 0.32
  GLuc reporter raw signal (replicates): 190530 and 188640 and 185180
Sec61 [1]; TNFa, Concentration 8
  GLuc reporter raw signal (replicates): 168690 and 159800
Sec61 [1]; TNFa, Concentration 40
  GLuc reporter raw signal (replicates): 128960 and 129480 and 142690
Sec61 [1]; TNFa, Concentration 200
  GLuc reporter raw signal (replicates): 58379 and 60837 and 65010
Sec61 [1]; TNFa, Concentration 1000
  GLuc reporter raw signal (replicates): 21193 and 19058 and 21945
Sec61 [1]; TNFa, Concentration 5000
  GLuc reporter raw signal (replicates): 10351 and 10241 and 10171
Sec61 [1]; TNFa, Concentration 25000
  GLuc reporter raw signal (replicates): 9540 and 9711 and 9400
Sec61 [2]; ADPGK signal peptide-GLuc reporter
  IC50: 540 nM
Sec61 [2]; ANGPTL3 signal peptide-GLuc reporter
  IC50: 49.4 nM
Sec61 [2]; APOC1 signal peptide-GLuc reporter
  IC50: 135 nM
Sec61 [2]; APP signal peptide-GLuc reporter
  IC50: 449 nM
Sec61 [2]; AXL signal peptide-GLuc reporter
  IC50: 13.8 nM
Sec61 [2]; BCAN signal peptide-GLuc reporter
  IC50: 142 nM
Sec61 [2]; C1S signal peptide-GLuc reporter
  IC50: 383 nM
Sec61 [2]; CALCA signal peptide-GLuc reporter
  IC50: 721 nM
Sec61 [2]; CALCB signal peptide-GLuc reporter
  IC50: 972 nM
Sec61 [2]; CD40 signal peptide-GLuc reporter
  IC50: 11300 nM
Sec61 [2]; CD47 signal peptide-GLuc reporter
  IC50: 373 nM
Sec61 [2]; CD96 signal peptide-GLuc reporter
  IC50: 29.2 nM
Sec61 [2]; CD274 signal peptide-GLuc reporter
  IC50: 93.3 nM
Sec61 [2]; CDH1 signal peptide-GLuc reporter
  IC50: 811 nM
Sec61 [2]; CDH2 signal peptide-GLuc reporter
  IC50: 15.5 nM
Sec61 [2]; CDH5 signal peptide-GLuc reporter
  IC50: 76 nM
Sec61 [2]; CNPY2 signal peptide-GLuc reporter
  IC50: 394 nM
Sec61 [2]; CPD signal peptide-GLuc reporter
  IC50: 694 nM
Sec61 [2]; CR1L signal peptide-GLuc reporter
  IC50: 61.3 nM
Sec61 [2]; CSF2RB signal peptide-GLuc reporter
  IC50: 652 nM
Sec61 [2]; CTLA4 signal peptide-GLuc reporter
  IC50: 343 nM
Sec61 [2]; DDRGK1 signal peptide-GLuc reporter
  IC50: 1850 nM
Sec61 [2]; DMKN signal peptide-GLuc reporter
  IC50: 2630 nM
Sec61 [2]; DNAJB11 signal peptide-GLuc reporter
  IC50: 4360 nM
Sec61 [2]; ERBB2 signal peptide-GLuc reporter
  IC50: 536 nM
